# Measured values from patent US12472207B2, “Anti-inflammatory compositions and methods” (RR Medsciences Pty Ltd., priority 2019, dated 2025).
# Columns and labels:
# human skin explants [1] = assay: UV-induced 8-oxoG in human skin explants (immunohistochemistry); type: cell-based; settings: epidermis; treatment of UV-exposed explants (post-treatment, RM191A Gel 2); vs UV-exposed controls
# Description: FIG. 5. (A) Representative images of immunohistochemical staining of 8-oxoG in human explants from isotype control and sham exposed explants. (B) Representative images of immunohistochemical staining of 8-oxoG in human skin explants from UV-exposed explants. (C-D) Analysis of 8-oxoG in (C) epidermis and (D) dermis of skin explants. Bars indicate significant differences **** p<0.001; NS=not significant between data sets (n=3 explants per data point).
# (§1) Exposure of skin to UV radiation induces oxidative stress via a dramatic increase in ROS (see, Dunaway et al., 2018). In this section of the research work we measured oxidative DNA damage caused by UV-induced cyclobutene pyrimidine dimers (CPD), oxidative DNA damage resulting from UV-induced 8-oxo-guanine (8-oxoG), and nitrosative DNA damage caused by 8-nitroguanine (8NG) (Mason et al., 2013). Typically, if these DNA lesions are not adequately repaired, they lead to mutations which may then lead to the development of skin tumours (Mason et al., 2013). Our primary objective here was to determine if RM191A, when applied topically to ex vivo human skin, reduced UV-induced DNA damage.
# (§2) The same treatment protocols were also followed for a placebo gel which contained no RM191A. […]
# human skin explants [2] = assay: UV-induced CPD in human skin explants (immunohistochemistry); type: cell-based; settings: epidermis; treatment of UV-exposed explants (post-treatment, RM191A Gel 2); vs UV-exposed controls
# Description: FIG. 4: RM191A protects against UV-induced oxidative stress. (A) Representative images of immunohistochemical staining of CPDs in human explants from isotype control and sham exposed explants. There was little staining in the isotype control. […] (B) Representative images of immunohistochemical staining of CPDs in human skin explants from UV-exposed explants. (C) Analysis of CPD in epidermis of skin explants. Bars indicate significant differences **** p<0.001; NS=not significant between data sets (n=3 explants per data point).
# as §1, §2
# human skin explants [3] = assay: UV-induced 8-nitroguanine (8NGO) in human skin explants (immunohistochemistry); type: cell-based; settings: either protocol
# Description: FIG. 6. (A) Representative images of immunohistochemical staining of 8NGO in human explants from isotype control and sham exposed explants. (B) Representative images of immunohistochemical staining of 8NGO in human skin explants from UV-exposed explants. (C-D) Analysis of 8NGO in epidermis (C) and dermis (D) of skin explants. Bars indicate significant differences **** p<0.001; NS=not significant between data sets (n=3 explants per data point).
# as §1, §2
# [4] = NBT superoxide scavenging (SOD-like activity) assay; type: biochemical; settings: for Absorbance 560 nm Ave: SOD primary data
# Description: The purpose of these experiments was to measure the Superoxide Dismutase-like (SOD-like) activity of the copper ion complex (RM191A) depicted in the Examples below as “Cu”. The inventors employed a modified version of the method described by Beauchamp and Fridovich (see, Beauchamp et al. 1971). The reason for this modification was to create a reaction mixture that successfully generates known quantities of the O2^− free radical but does so at a pH at which the copper ion complex is stable—specifically in the range pH 6.5-7.8.
# Because of the instability of its substrate, all available chemical assays of SOD and SOD-like activity are necessarily indirect and depend upon its ability to scavenge O2^− from reaction mixtures and thus to inhibit reactions caused by O2^−.
# NitroBlue Tetrazolium (NBT) was selected as an indicator to measure and compare the superoxide scavenging activities of both bovine SOD and the copper ion complex (“RM191A,” the preparation of which is described in detail in International PCT Patent Publication No. WO/AU2016/201524), This assay utilizes photochemical events to generate O2^− in a sodium tetraborate buffered solution of acetone and isopropanol which is then irradiated by high energy UV light at 254 nm (Mercury Vapour Lamp) to create O2^− in the solution.
# SOD and SOD-like substances inhibit the formation of the blue formazan by neutralising the superoxide free radicals as they are forming. Blue formazan has a characteristic UV absorbance at 560 nm. The quantitation of the UV absorbance of the reaction solution at 560 nm is a direct measure the SOD and SOD-like activity of a substance.
# UV absorbances of the reaction solutions were measured at 560 nm following irradiation with UV light to determine the superoxide free radical scavenging activity in situ of both bovine SOD and the copper ion complex (RM191A).
# Each reaction solution consists of 0.5 ml of 200 μmol/L NBT in borate buffer (pH=7.1) and 0.5 ml of a 200 μmol/L solution of the test compound in 5.0 mL of 5 mol/L isopropanol.
# To each reaction vessel 15 mg acetone (20 μL) as added to begin the reaction. Each vessel was then irradiated with UV light at 254 nm (mercury vapour lamp) for 1 minute.
# The reaction solution was then transferred into UV Vis cells and the absorbance at 560 nm was measured.
# A number of test solution concentrations were assayed by adding, 1.0, 1.25, 1.5, 1.75, 2.0 mL of a 200 μmol/L solution of the test compound and bringing the total volume to 5.0 mL with 5 mol/L isopropanol.
# The method uses a Cu control to remove the minor background copper absorbance.
Molecule,decrease in nuclear 8-oxoG (human skin explants [1]) [%],decrease in CPD (human skin explants [2]) [%],8NGO vs UV-exposed controls (human skin explants [3]),Absorbance (Table 5) ([4]; 1.6 μM),Absorbance (Table 5) ([4]; 20 μM),Absorbance (Table 5) ([4]; 40 μM),Absorbance (Table 5) ([4]; 80 μM),Absorbance 560 nm Ave ([4]; Molarity 0.0000016),Absorbance 560 nm Ave ([4]; Molarity 0.00002),Absorbance 560 nm Ave ([4]; Molarity 0.00004),Absorbance 560 nm Ave ([4]; Molarity 0.00008),Absorbance 560 nm Ave ([4]; Molarity 0.0001),Absorbance 560 nm Ave ([4]; Molarity 0.00012),Absorbance 560 nm Ave ([4]; Molarity 0.00014)
"C=C1/C(=C\C=C2/CCC[C@]3(C)[C@@H]([C@H](C)CCCC(C)(C)O)CC[C@@H]23)C[C@@H](O)C[C@@H]1O [1,25D, 1,25-dihydroxy vitamin D3]",27,30,significantly decreased,,,,,,,,,,,
SOD: bovine superoxide dismutase used as comparator,,,,0.2988,0.2879,0.2348,0.332,0.2988,0.2879,0.2348,0.332,0.3163,0.3215,0.3555
